According to paper PMC10331789 (Journal of natural products, 2023):

Target: Na+/K+-ATPase (NKA)
Assay: luminescent ADP detection assay
Format: biochemical, Sus scrofa

SMILES: CO[C@H]1C[C@H](O[C@H]2CC[C@@]3(C)[C@@H](C2)C[C@@H]2O[C@]24[C@@H]3[C@H](O)C(=O)[C@]2(C)[C@@H](C3=CC(=O)OC3)CC[C@]42O)O[C@@H](C)[C@@H]1O [compound 1, (–)-cryptanoside A]
- IC50: 1200 nM
